≈ marks a conversion by molar mass, not a printed value. Entries after “also recorded” stand apart in the source; their conditions may differ. Read-outs that look alike come from different tables or passages of the source.
Key:
HL60 = test: CellTiter-Blue cell viability assay, HL60; type: cell-based, human; details: 48 h, mean of triplicates
Experimental: (§1) Cell culture of leukemia cell lines model was performed as follows. HL60, K562, and NB4 cell lines were purchased from CLS Cell Line Service GmbH (Eppelheim, Germany). MV4-11 cell line was purchased from American Type Culture Collection (ATCC; Virginia, USA). KG1α also referred to as KG1a was a gift from Prof. Ghulam Mufti (King College London, UK). Kasumi-1 cell line was purchased from Nawah Scientific (Cairo, Egypt). All cell lines were cultured in Roswell Park Memorial Institute-1640 (RPMI-1640) culture medium supplemented with 10% fetal bovine serum (FBS) (Thermo Fisher Scientific) and 0.1% ciprofloxacin (10 μg/ml; Cipla Limited; Mumbai, India). Cells were maintained in a humidified incubator at 37° C. with 5% CO2.
(§2) Cell viability was determined using the CellTiter-Blue® Cell Viability Assay kit (Promega, Madison, WI, USA). Approximately […] were plated in 96 well plate in the presence of increasing drug concentration in triplicate and incubated for 48 h at 37° C. in a humidified incubator. After the incubation period, 20 μL of the cell titer blue reagent was added to each well and the plate was incubated for additional 2 h for the development of florescence. Florescence was measured at 540Ex/590Em on SpectraMax i3 Multi-Mode Microplate Reader (Molecular Devices, LLC; San Jose, CA, USA). […]

KG1a = test: CellTiter-Blue cell viability assay, KG1a; type: cell-based, human; details: 48 h, mean of triplicates
Experimental: as §1, §2

Kasumi-1 = test: Annexin V/7AAD apoptosis assay, Kasumi-1; type: cell-based, human; details: approximately 2×IC50, 48 h
Experimental: Apoptosis assay for leukemia cells was performed as follows. Cells were cultured in 6-well plates at a density of 3× 10^5 cells per well and treated with approximately 2×IC50 values of compound (Id) for 48 h. The experiments were performed in duplicates. To measure apoptosis, Annexin V APC and 7AAD staining (BD Biosciences, San Jose, CA, USA) was performed according to the manufacturer's recommendations, and 10,000 events were acquired using a FACSCanto flow cytometer (BD Biosciences, San Jose, CA, USA).

[1] = Maximum kinetic aqueous solubility; type: physicochemical; details: 2% DMSO/PBS, pH 7.4, read-out: Max. aq. Sol.
Experimental: Solubility assays were performed using Millipore MultiScreen® HTS-PFC Filter Plates designed for solubility assays (EMD Millipore, Billerica, MA). Assays were run in triplicate. The 96-well plates consist of two chambers separated by a filter. Liquid handling was performed using JANUS® Verispan and MTD workstations (Perkin Elmer, Waltham, MA). 4 μL of compound (Id) solution (10 mM in DMSO) was added to 196 μL of phosphate buffer (45 mM potassium phosphate, 45 mM sodium acetate, 45 mM ethanolamine, pH=7.4) in the top chamber to give a final DMSO concentration of 2% and a theoretical drug concentration of 200 μM. Plates were gently shaken for 90 min and then subjected to vacuum. Insoluble drug was captured on the filter. 160 μL of the filtrate was transferred to 96-well Griener UV Star® analysis plates (Sigma-Aldrich, St. Louis, MO) containing 40 μL of acetonitrile. The test compound concentration in the filtrates was measured by UV absorbance on a SpectraMax® Plus microplate reader (Molecular Devices, Sunnyvale, CA) using Softmax Pro software v.5.4.5. Absorbances at 5 wavelengths (280, 300, 320, 340, and 360 nm) were summed to generate the UV signal. Standard curves were generated by adding 4 μL of five concentrations of test compound in DMSO to 40 μL of acetonitrile in UV Star plates followed by 156 μL of the appropriate solubility medium. Analysis and statistics were performed using GraphPad® Prism v.5.04. Data were reported as the maximum concentration observed in the filtrate.

[2] = Stability in mouse liver microsomes; type: in vitro ADME
Experimental: (§3) The clearance of compound (Id) in mouse or human liver microsomes was determined at 37° C. Both mouse and human liver microsomes were obtained from Merck KGaA, (Darmstadt, Germany), Cat. No. M9441 (Mouse liver microsomes) and M0317 (Human liver microsomes). Assays were conducted in triplicate in 96-deep well polypropylene plates. […] At five time points, reaction mixture aliquots were transferred to 96-shallow well stop plates on ice containing acetonitrile with 0.1 μM propafenone. […] Standard curves for test compounds were generated using 5 concentrations in triplicate that were processed as above but with zero incubation time. Stop plates were centrifuged at 2000 g for 10 min and then supernatant aliquots were transferred to a Waters Aquity® UPLC 700 μL 96-well sample plate with cap mat (Waters, Milford, MA). The amount of compound remaining in the supernatant was quantified by LC/MS/MS using a Waters Xevo TQ MS (electrospray positive mode) coupled to a Waters Aquity® UPLC (BEH column, C18). Propafenone was used as the internal standard. GraphPad® Prism v 5.04 was used for nonlinear fitting of time course data to generate t1/2 values.

[3] = Stability in human liver microsomes; type: in vitro ADME
Experimental: as §3

CYP2D6 = target: T1, CYP2D6 (Homo sapiens, UniProt P10635); test: CYP450 2D6 inhibition; type: in vitro ADME; details: recombinant CYP2D6 expressed in insect supersomes, probe 3-[2-(N,N-diethylamino)ethyl]-7-methoxy-4-methylcoumarin, expressed enzyme, fluorescent substrate
T1 construct: purchased Fisher Scientific, Waltham, MA; host or cells: insect cells (supersomes)
Experimental: The compound (Id) was assessed for its ability to inhibit the three major human CYP450 enzymes, 3A4, 2D6 and 2C9. Assays were run in triplicate. Expressed enzymes in insect supersomes (Fisher Scientific, Waltham, MA) were used to minimize non-specific binding and membrane partitioning issues. The 3A4 assay uses testosterone as a substrate and analysis was performed by LC/MS/MS on a Waters Xevo TQ instrument as described above using positive electrospray ionization. Assay acceptance criteria was 20% for all standards and 25% for the LLOQ. The 2D6 and 2C9 assays use fluorescent substrates (3-[2-(N,N-diethylamino)ethyl]-7-methoxy-4-methylcoumarin for 2D6; 7-methoxy-4-(trifluoromethyl) coumarin for 2C9) and were analyzed on an Envision plate reader. GraphPad® Prism v 5.04 was used for nonlinear fitting of data to generate IC50 values.

HCT116 CRC cells = details: previous study (Khayat et al.); cited from earlier work
[4] = without NADPH, percent remaining after 60 min incubation
[5] = without NADPH, percent remaining after 60 min incubation, listed as compound (Id)
[6] = human liver microsomes, in presence of NADPH, 37° C.

T1 sequence (P10635 whole entry): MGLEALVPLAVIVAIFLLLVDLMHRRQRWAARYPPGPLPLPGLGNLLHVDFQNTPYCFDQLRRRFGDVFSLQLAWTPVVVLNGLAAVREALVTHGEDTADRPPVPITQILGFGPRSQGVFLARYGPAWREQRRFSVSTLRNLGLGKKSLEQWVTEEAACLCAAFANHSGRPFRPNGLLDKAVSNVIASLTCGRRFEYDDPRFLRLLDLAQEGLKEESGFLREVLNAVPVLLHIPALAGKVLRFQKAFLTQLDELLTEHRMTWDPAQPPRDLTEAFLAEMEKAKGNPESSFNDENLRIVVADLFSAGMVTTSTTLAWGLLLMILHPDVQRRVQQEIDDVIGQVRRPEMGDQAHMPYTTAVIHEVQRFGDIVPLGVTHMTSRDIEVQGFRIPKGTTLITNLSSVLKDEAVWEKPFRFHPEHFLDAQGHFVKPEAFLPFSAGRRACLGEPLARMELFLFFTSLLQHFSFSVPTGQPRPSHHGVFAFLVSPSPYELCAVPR

| Compound | IC50 (HL60; Homo sapiens, HL-60) [nM] | IC50 (KG1a; Homo sapiens, KG-1a) [nM] | apoptosis in Kasumi-1 cells (Kasumi-1) | solubility kinetic at 90 min [1] [µM] | solubility kinetic at 90 min ([1]; phosphate buffer with 2% DMSO, aqueous buffer, kinetic from dmso stock) [µM] | half-life ([2]; male, CD-1, mouse liver microsomes, in presence of NADPH, 37° C., read-out: Stability MLM t1/2) [min] | Mic. Ctrl. Mouse % @60 min [2, 4] [%] | Mic. Ctrl. Mouse % @60 min [2, 5] | Stability HLM t1/2 [3, 6] [min] | half-life ([3]; human, liver microsomes, human liver microsomes, in presence of NADPH, 37° C., read-out: Stability HLM t1/2) [min] | Mic. Ctrl. Human % @60 min [3, 4] [%] | Mic. Ctrl. Human % @60 min [3, 5] | IC50 (CYP2D6) [nM] | IC50 (HL60) [nM] | IC50 (KG1a) [nM] | Mic. Ctrl. Mouse % @60 min [2] [%] | Stability MLM t1/2 ([2]; mouse liver microsomes, in presence of NADPH, 37° C.) [min] | Mic. Ctrl. Human % @60 min [3] [%] | IC50 (HCT116 CRC cells) [nM] |
| --- | --- | --- | --- | --- | --- | --- | --- | --- | --- | --- | --- | --- | --- | --- | --- | --- | --- | --- | --- |
| CC1=N/C(=C\c2ccc(C)o2)C(=O)N1c1ccc(CC(=O)NCc2ccccc2)cc1 [Compound (Id), 2-Methyl-4-(5-methyl-2-furyl)methylene-1-[4-(benzylaminocarbonylmethyl)phenyl]-5-oxo-1H-imidazole] | 443 | 488 | strong apoptosis; also recorded: very strong induction of apoptosis | 79.8 (≈ 33 µg/mL) | 79.8 (≈ 33 µg/mL) | 16.6 | 90 | did not change | 30.3 | 30 | 118 | did not change | > 10000 |  |  |  |  |  |  |
| COc1ccc(/C=C2\N=C(C)N(c3ccc(CC(=O)NCc4ccccc4)cc3)C2=O)cc1 [KIM-161, reference compound] |  |  |  | 19.9 (≈ 8.75 µg/mL) |  |  |  |  | 22.9 |  |  |  |  | 238 | 283 | 112 | 14.8 | 113 | 294 |

Source: patent US20250282764A1, “IMIDAZOLE HETEROCYCLE BASED COMPOUNDS AND METHODS OF TREATING CANCER” (King Abdulaziz University, priority 2024, published 2025)
